# From ChEMBL document CHEMBL1629535, “Novel small molecule inhibitors of MDR Mycobacterium tuberculosis by NMR fragment screening of antigen 85C” (2010)
# Activity calls are given as the source filed them. No cut-off for these calls is given here.
# How the values were obtained:
# [1] = molecular target: Diacylglycerol acyltransferase/mycolyltransferase Ag85C (Mycobacterium tuberculosis) (UniProt P9WQN9); assay: Binding affinity to substrate binding site of multidrug resistance Mycobacterium tuberculosis antigen 85C by NMR assay
# Diacylglycerol acyltransferase/mycolyltransferase Ag85C (Mycobacterium tuberculosis), sequence (P9WQN9 whole entry): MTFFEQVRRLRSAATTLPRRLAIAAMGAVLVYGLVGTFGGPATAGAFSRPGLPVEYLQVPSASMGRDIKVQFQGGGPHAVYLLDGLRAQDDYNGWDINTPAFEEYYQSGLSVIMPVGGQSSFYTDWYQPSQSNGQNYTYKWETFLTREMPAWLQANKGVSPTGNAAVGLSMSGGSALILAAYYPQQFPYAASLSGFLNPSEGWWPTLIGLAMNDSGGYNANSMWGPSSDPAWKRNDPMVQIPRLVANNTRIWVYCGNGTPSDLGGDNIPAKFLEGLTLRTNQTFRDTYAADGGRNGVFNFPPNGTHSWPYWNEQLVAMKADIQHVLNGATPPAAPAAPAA
# [2] = system: Mycobacterium tuberculosis; assay: Growth inhibition of multidrug resistance Mycobacterium tuberculosis 2745/09; type: functional
SMILES,Activity [1],MIC [2] [µg/mL]
CCC1(C)Cc2c(sc(N)c2C#N)CO1 (stereo not drawn),inactive,–
CCCOc1ccc2nc(N)sc2c1,–,20
CCCC1CCc2c(sc(N)c2C(N)=O)C1 (stereo not drawn),Active,–
CCC1CCc2c(sc(N)c2C#N)C1 (stereo not drawn),Active,50
CC1CCc2c(sc(N)c2C(N)=O)C1 (stereo not drawn),Active,–
CCC1CCc2c(sc(N)c2C(N)=O)C1 (stereo not drawn),Active,–
CCOC(=O)c1c(N)sc2c1C(C)CCC2 (stereo not drawn),Active,–
Nc1sc2c(c1C(=O)NCc1ccccc1)CCCC2,inactive,–
COC(=O)c1c(N)sc2c1CCCC2,Active,–
CC(=O)Nc1sc2c(c1C#N)CCCC2,inactive,–
CC1(C)Cc2c(sc(N)c2C#N)CO1,inactive,–
CC(=O)c1c(N)sc2c1CCCC2,Active,–
CC(C)C(=O)Nc1sc2c(c1C#N)CCCC2,inactive,–
N#Cc1c(N)sc2c1CCCCC2,Active,500
CCCC1CCc2c(sc(N)c2C#N)C1 (stereo not drawn),Active,50
CCN1CCc2c(sc(N)c2C#N)C1,inactive,–
O=c1[nH]c(-c2ccncc2)nc2sc3c(c12)CCCC3,inactive,–
CC1CCc2c(sc(N)c2C#N)C1 (stereo not drawn),Active,–
N#Cc1c(N)sc2c1C1CCN2CC1,inactive,–
N#Cc1c(N)sc2c1CCCC2,Active,–
